Assays:
[1] = proton borne by the heteroatom, literature value; cited from earlier work
human cancer cell lines = test: Cytotoxicity towards human cancer cell lines, overall comparison with cisplatin; format: cell-based; conditions: cytotoxicity across the tested cell lines
Experimental: (§1) Cytotoxicity assay: The compound/complex was dissolved in DMSO and diluted in DMSO. The final dilution was in the respective culture medium and the final concentration of DMSO was always below 0.01%. Cells were pipetted into microtitre plates (NUNC) at 4000 cells/well and incubated at 37° C. in 5% CO2 in air for 24 hr. Varying concentrations of the compounds/complexes were applied to the cells in 10 μl volumes. The plates were incubated for 3 days at 37° C. 5% CO2 in air. The viability of the cells was measured using the Dojindo kit CCK-8 (Cell counting Kit—8, Dojindo technologies USA, CK04-11) method after incubation for 3 hr in the absence of light. The plates were read on an ELISA plate reader at a wavelength of 450 nm.

[2] = tested on: LNCaP (prostate carcinoma) cell line; test: Cytotoxicity assay (CCK-8 viability), LNCaP; format: cell-based, human; conditions: 3 days incubation
Experimental: as §1

[3] = tested on: human urothelial cell line (SV-HUC-1); test: Cytotoxicity assay (CCK-8 viability), SV-HUC-1; format: cell-based; conditions: SV-HUC-1, 3 days incubation
Experimental: as §1

Cc1ccc(O)cc1 [p-cresol (14b), p-cresol]
pKa [1]: 18.9

CC(C)c1cccc(C(C)C)c1N1C=CN(c2c(C(C)C)cccc2C(C)C)[CH]1[Au][OH] [complex 2, [Au(OH)(IPr)]]
Overall activity compared with cisplatin (human cancer cell lines): superior to that displayed by cisplatin

N.N.[Cl][Pt][Cl] [cisplatin]
IC50 [2]: 18 µM | IC50 [3]: 25 µM

Cc1ccc(S)cc1 [p-thiocresol (14a), p-thiocresol]
pKa [1]: 10.3

— US9464097B2, “Gold complexes” (UNIVERSITY COURT OF THE UNIVERSITY OF ST. ANDREWS, priority 2010, dated 2016)
